Values after ≈ are worked out from the molar mass of the structure shown.
Tests used:
[1] = Bioavailability in rat at 3 mg/kg, iv and 10 mg/kg, po; type: ADME, organism-based; conditions: in vivo
[2] = Half life in rat at 3 mg/kg, iv and 10 mg/kg, po; type: ADME, organism-based; conditions: in vivo
[3] = system: Mus musculus; experiment: Inhibition of phosphorylated CSF1R level in 3T3/CSF1R mutant cells xenografted nude mouse at 25 mg/kg, po after 2 hrs by ELISA; type: functional
[4] = Aqueous solubility of the compound; type: physicochemical; conditions: buffer
[5] = Volume of distribution at steady state in rat at 3 mg/kg, iv and 10 mg/kg, po; type: ADME, organism-based; conditions: in vivo, read-out: Vdss
[6] = Clearance in rat at 3 mg/kg, iv and 10 mg/kg, po; type: ADME, organism-based; conditions: in vivo
[7] = system: NIH3T3; experiment: Antiproliferative activity against mouse 3T3 cells expressing human CSF1R after 72 hrs by Celltiter assay; type: functional
[8] = system: Mus musculus; experiment: Inhibition of phosphorylated CSF1R level in 3T3/CSF1R mutant cells xenografted nude mouse at 25 mg/kg, po after 6 hrs by ELISA; type: functional
[9] = Plasma protein binding assessed as percentage unbound

Compound | bioavailability [1] [%] | half-life [2] [h] | inhibition in vivo at 25 mg/kg [3] [%] | solubility [4] [µM] | Vd [5] [L/kg] | clearance [6] [mL/min/kg] | Activity [7] [µM] | inhibition in vivo at 25 mg/kg [8] [%] | fraction unbound [9]
CCOc1cc2ncc(C(N)=O)c(Nc3cc(C)ccc3F)c2cc1N1CCN(C)CC1 | 88 | 2.3 | 90 | 66 (≈ 28.9 µg/mL) | 5.3 | 28 | 0.09 | 80 | 
COCCOc1cc2ncc(C(N)=O)c(Nc3ccc(F)cc3F)c2cc1N1CCN(C)CC1 | 100 | 3.8 | 100 | 720 (≈ 339 µg/mL) | 18 | 68 |  | 70 | 0.46
COCCOc1cc2ncc(C(N)=O)c(Nc3ccc(C)cc3F)c2cc1N1CCN(C)CC1 | 100 | 3.4 | 100 | 63 (≈ 29.5 µg/mL) | 8.6 | 33 |  | 80 | 0.16
COCCOc1cc2ncc(C(N)=O)c(Nc3cccc(Cl)c3Cl)c2cc1N1CCN(C)CC1 | 32 | 0.83 | 100 | 380 (≈ 192 µg/mL) | 21 | 290 | 0.01 | 80 | 0.1
CCOc1cc2ncc(C(N)=O)c(Nc3ccc(C)cc3F)c2cc1N1CCN(C)CC1 | 46 | 2.3 |  | 54 (≈ 23.6 µg/mL) | 1.8 | 10 |  | 60 | 
CCOc1cc2ncc(C(N)=O)c(Nc3ccc(F)cc3F)c2cc1N1CCCN(C2CC2)CC1 |  |  |  | 100 (≈ 48.2 µg/mL) |  |  | 0.27 |  | 0.022
CC(C)Oc1cc2ncc(C(N)=O)c(Nc3ccc(F)cc3F)c2cc1N1CCN(C)CC1 | 40 | 2.3 | 100 | 52 (≈ 23.7 µg/mL) | 1.4 | 7 | 0.17 | 50 | 0.017
CCOc1cc2ncc(C(N)=O)c(Nc3ccc(F)cc3F)c2cc1N1CCC(O)CC1 |  |  |  | 2 (≈ 0.885 µg/mL) |  |  |  |  | 0.089
CCOc1cc2ncc(C(N)=O)c(Nc3cccc(Cl)c3Cl)c2cc1N1CCN(C(=O)CO)CC1 | 6 | 0.66 |  | 29 (≈ 15 µg/mL) | 2.2 | 72 | 0.09 |  | 0.16
CCOc1cc2ncc(C(N)=O)c(Nc3ccc(F)c(Cl)c3)c2cc1N1CCN(C)CC1 | 55 | 2.2 | 70 |  | 9.3 | 53 | 0.13 | 55 | 0.034
CCOc1cc2ncc(C(N)=O)c(Nc3cccc(Cl)c3Cl)c2cc1N1CCCN(C)CC1 | 100 | 8.6 | 90 | 130 (≈ 63.5 µg/mL) | 40 | 63 | 0.05 | 95 | 0.019
CCOc1cc2ncc(C(N)=O)c(Nc3ccc(F)cc3F)c2cc1N1CCN(C(C)C)CC1 |  |  | 70 | > 1000 |  |  | 0.17 | 50 | 
CC(C)Oc1cc2ncc(C(N)=O)c(Nc3ccc(Cl)c(Cl)c3)c2cc1N1CCN(C)CC1 |  |  |  | 250 (≈ 122 µg/mL) |  |  | 0.12 |  | 0.01
CCOc1cc2ncc(C(N)=O)c(Nc3cccc(Cl)c3F)c2cc1N1CCN(C)CC1 | 54 | 1.1 | 100 | 10 (≈ 4.58 µg/mL) | 1.9 | 24 | 0.11 | 90 | 0.071
CC(C)Oc1cc2ncc(C(N)=O)c(Nc3cccc(Cl)c3F)c2cc1N1CCN(C)CC1 |  |  |  | 790 (≈ 373 µg/mL) |  |  | 0.21 |  | 0.049
CCOc1cc2ncc(C(N)=O)c(Nc3cccc(Cl)c3Cl)c2cc1N1CCN(CCOC)CC1 |  |  |  | 13 (≈ 6.74 µg/mL) |  |  | 0.03 |  | 0.017
COc1cc2ncc(C(N)=O)c(Nc3ccc(F)cc3F)c2cc1OC | 100 | 0.6 |  |  | 0.9 | 23 | 0.4 |  | 
COc1cc2c(Nc3cccc(Cl)c3Cl)c(C(N)=O)cnc2cc1N1CCN(C)CC1 |  |  |  | 220 (≈ 101 µg/mL) |  |  | 0.17 |  | 
CCOc1cc2ncc(C(N)=O)c(Nc3ccc(F)cc3F)c2cc1N1CCOCC1 | 25 | 0.6 |  | 64 (≈ 27.4 µg/mL) | 1.1 | 36 | 0.48 |  | 0.084
CCOc1cc2ncc(C(N)=O)c(Nc3ccc(F)cc3F)c2cc1N1CCN(CC)CC1 | 46 | 2.3 |  | 320 (≈ 146 µg/mL) | 3.6 | 19 | 0.17 |  | 0.046
COCCOc1cc2ncc(C(N)=O)c(Nc3cccc(Cl)c3F)c2cc1N1CCN(C)CC1 |  |  | 80 | 910 (≈ 444 µg/mL) |  |  | 0.1 | 75 | 0.39
COc1cc2ncc(C(N)=O)c(Nc3ccc(Cl)c(Cl)c3)c2cc1N1CCN(C)CC1 |  | 1.2 |  |  | 3.8 | 50 | 0.38 |  | 0.036
CC(C)Oc1cc2ncc(C(N)=O)c(Nc3cccc(Cl)c3Cl)c2cc1N1CCN(C)CC1 |  |  | 70 | 200 (≈ 97.7 µg/mL) |  |  | 0.05 | 35 | 0.014
CCOc1cc2ncc(C(N)=O)c(Nc3cccc(Cl)c3Cl)c2cc1N1CCCN(C(C)C)CC1 |  |  | 90 | 420 (≈ 217 µg/mL) |  |  | 0.02 | 75 | 0.049
CCOc1cc2ncc(C(N)=O)c(Nc3cccc(Cl)c3Cl)c2cc1N1CCN(CCO)CC1 |  |  |  | 67 (≈ 33.8 µg/mL) |  |  | 0.03 |  | 0.048
CCOc1cc2ncc(C(N)=O)c(Nc3ccc(F)cc3F)c2cc1N1CCN(C2CC2)CC1 | 34 | 0.9 | 70 | 150 (≈ 70.1 µg/mL) | 0.6 | 21 | 0.66 | 10 | 
CCOc1cc2ncc(C(N)=O)c(Nc3ccc(Cl)c(Cl)c3)c2cc1N1CCN(C)CC1 | 42 | 1.2 | 80 | 3 (≈ 1.42 µg/mL) | 3.7 | 47 | 0.06 | 40 | 
CCOc1cc2ncc(C(N)=O)c(Nc3ccc(F)cc3F)c2cc1N1CCCN(C)CC1 | 16 | 6.6 | 90 | 530 (≈ 241 µg/mL) | 16 | 32 |  | 55 | 0.31
COCCOc1cc2ncc(C(N)=O)c(Nc3cc(C)ccc3F)c2cc1N1CCN(C)CC1 | 45 | 4.2 | 85 |  | 4.7 | 60 | 0.17 | 70 | 0.16

From ChEMBL document CHEMBL1143306, “3-amido-4-anilinoquinolines as CSF-1R kinase inhibitors 2: Optimization of the PK profile” (Bioorg Med Chem Lett, 2009)
